Data as given in patent US20040186046A1, “Treatment of type 1 diabetes with PDE5 inhibitors” (Pfizer Inc, priority 2003, published 2004).

Experiments:
[1] = Sildenafil mean plasma concentration (free drug) in normal and STZ-treated rats on chronic sc dosing; assay type: in vivo, rat; details: chronic sildenafil 3 × 20 mg/kg sc/day
Method: (§1) To induce Type 1 diabetes, rats of 200-250 g were injected intra-peritoneally with streptozotocin (60 mg/kg) in citrate phosphate buffer, pH4.5 or the equivalent volume of vehicle. The development of non-keturonic hyperglycaemic diabetes was induced within 48 h and was confirmed by determining blood glucose levels in blood obtained from the tail vein of the rats at 48 h after STZ administration and monitored […] thereafter.
Throughout this period blood samples were taken from the tail vein on a weekly basis. These samples were taken prior to dosing so that trough concentrations could be estimated (ie at 6-8 h post dose). A further sample was taken at week 8 ([…] post dosing).

U397 cells = details: statement quoted from U.S. Pat. No. 6,479,493, column 38; cited from earlier work
[2] = tested on: control and STZ-treated rats; assay: Plasma glucose in control and STZ-treated rats (model of Type 1 diabetes) on chronic sildenafil; assay type: in vivo, rat; details: for minimum glucose levels (Table 3), Change from vehicle / minimum glucose levels (Table 3), Sildenafil group / minimum plasma glucose (Table 2), Change from vehicle / minimum plasma glucose (Table 2), Sildenafil group: sildenafil 60 mg/kg/day sc; for minimum plasma glucose (Table 2), Change from vehicle / minimum plasma glucose (Table 2), Sildenafil group: average, week 2 to week 6; for statistical significance (p) of effect of sildenafil on minimum glucose levels / statistical significance (p) of effect of Sildenafil on average glucose: vs vehicle
Method: STZ is a nitrosamine which is toxic to the pancreatic β-cells and STZ-treated rats have been used as an experimental model for Type 1 diabetes (see e.g. Ari et al, Clin Sci (Colch) 1999:96:365).
as §1
The Sildenafil-treated rats were divided in two group—normal and STZ-treated. In addition, there were two non-sildenafil groups—again normal and STZ treated. Throughout this period blood samples were taken from the tail vein on a weekly basis. These samples were taken prior to dosing so that trough concentrations could be estimated (ie at 6-8 h post dose). A further sample was taken at week 8 ([…] post dosing). Plasma from these blood samples, from all rats treated with sildenafil, and some controls, were assayed for sildenafil (and its n-desmethyl metabolite).
The plasma from these samples was stored at −20° C. and analysed for levels of glucose using the Roche/Hitachi 912 Clinical Chemistry Analyzer (Roche Diagnostics Corp., Indianapolis, Ind.) with kits supplied by Roche. All assays were conducted according to instructions provided by the manufacturers.

- Sildenafil Mean plasma concentration (free drug) ([1]; Normal rats, 2 weeks (6-8 h post dose), n = 12): 36 nM
- Sildenafil Mean plasma concentration (free drug) ([1]; Normal rats, 4 weeks (6-8 h post dose), n = 12): 45 nM
- Sildenafil Mean plasma concentration (free drug) ([1]; Normal rats, 6 weeks (6-8 h post dose), n = 12): 45 nM
- Sildenafil Mean plasma concentration (free drug) ([1]; Normal rats, 8 weeks (32-35 h post dose), n = 12): 28 nM
- Sildenafil Mean plasma concentration (free drug) ([1]; STZ rats, 2 weeks (6-8 h post dose), N = 6-10): 79 nM
- Sildenafil Mean plasma concentration (free drug) ([1]; STZ rats, 4 weeks (6-8 h post dose), N = 6-10): 41 nM
- Sildenafil Mean plasma concentration (free drug) ([1]; STZ rats, 6 weeks (6-8 h post dose), N = 6-10): 57 nM
- Sildenafil Mean plasma concentration (free drug) ([1]; STZ rats, 8 weeks (32-35 h post dose), N = 6-10): 11 nM
Compound: CCCc1nn(C)c2c(=O)[nH]c(-c3cc(S(=O)(=O)N4CCN(C)CC4)ccc3OCC)nc12 [Sildenafil, 5-[2-ethoxy-5-(4-methyl-1-piperazinylsulphonyl)phenyl]-1-methyl-3-n-propyl-1,6-dihydro-7H-pyrazolo[4,3-d]pyrimidin-7-one]
- induction of apoptosis (U397 cells): does not induce apoptosis
- minimum glucose levels (Table 3), Change from vehicle ([2]; Control rats): -13 mg/dL
- minimum glucose levels (Table 3), Sildenafil group ([2]; Control rats): 176 mg/dL
- minimum plasma glucose (Table 2), Change from vehicle ([2]; Control rats): -25 mg/dL
- minimum plasma glucose (Table 2), Sildenafil group ([2]; Control rats): 190 mg/dL
- statistical significance (p) of effect of sildenafil on minimum glucose levels ([2]; STZ-treated animals, statistically significant effect): < 0.01
- minimum glucose levels (Table 3), Change from vehicle ([2]; STZ-treated rats): -269 mg/dL
- minimum glucose levels (Table 3), Sildenafil group ([2]; STZ-treated rats): 462 mg/dL
- minimum plasma glucose (Table 2), Change from vehicle ([2]; STZ-treated rats): -220 mg/dL
- minimum plasma glucose (Table 2), Sildenafil group ([2]; STZ-treated rats): 583 mg/dL
- statistical significance (p) of effect of Sildenafil on average glucose ([2]; STZ-treated rats): < 0.05
- effect on average plasma glucose (in words) ([2]; control and STZ-treated rats, decrease greater in STZ-treated animals): lowered average glucose in both types of rat
- statistical significance (p) of effect of Sildenafil on average glucose ([2]; control rats): < 0.01
- statistical significance (p) of effect of sildenafil on minimum glucose levels ([2]; control rats, no statistically significant effect): > 0.10
